From PMC6754133 (PLoS ONE, 2019)

What was measured:
MB-PDX xenograft = experiment: Subcutaneous patient-derived medulloblastoma xenograft model, tumor volume; format: in vivo, mouse; conditions: NSG mice, 40 mg/kg daily intraperitoneally from day 7, 42 days
Experimental: Tumor volumes were monitored three times a week in the course of treatment.
NSG mice, 4–6 weeks old, were injected subcutaneously at shoulders and flanks with 1 × 10^6 viable MB-PDX cells in 1:1 HBSS and gelatinous protein mixture Matrigel. […] The tumor size was measured three times a week with a caliper, and tumor volumes were calculated according to the formula (length × width × width × 0.5). At day 42 post-grafting, all mice were euthanized by isoflurane inhalation and cervical dislocation.

[1] = molecular target: Carbonic anhydrase 1 (CAH1_HUMAN); conditions: S2/S3 Table; ref [2] Parkkila S et al., Bioorg Med Chem Lett. 2009; cited from earlier work
DAOY cells = experiment: Neurosphere formation assay; format: cell-based, human; conditions: Homo sapiens, Daoy, 168 h, read-out: Inhibition of NS formation, wells
Experimental: (§2) The final concentration of test compounds in the wells was 10 μM. Cells were incubated at 37 °C for at least seven days. After incubation percent of wells positive with neural stem cell-derived sphere colonies were calculated for each test condition and compared.

MB-PDX cells [2] = experiment: Neurosphere formation assay; format: cell-based, human; conditions: Homo sapiens, 168 h, read-out: Inhibition of NS formation, wells
Experimental: as §2

[3] = system: nuclear Gli-1 in MB-PDX cells; experiment: Western blot quantitation of nuclear Gli-1; format: cell-based, human; conditions: NS conditions, 24-hour treatment, 5 μM (Fig 6f, S4 Fig)
Experimental: (§1) Nuclear fractions were prepared from cell pellets according to the method of Schreiber et. al.[81] with minor modifications. […] After 24 hours, cells were lifted from the wells by pipetting, transferred to 1.5 mL Eppendorf tubes, centrifuged at 10,000 x g for 1 minutes at 4°C, and washed once in PBS. Following supernatant removal by vacuum, cells were lysed using a plasma membrane lysis buffer [10 mM HEPES; pH 7.5, 10 mM KCl, 0.1 mM EDTA, 1 mM dithiothreitol (DTT), 0.5% Nonidet P‐40 and 0.5 mM PMSF along with 1× protease inhibitor cocktail (Sigma)] and allowed to swell on ice for 15‐20 min with intermittent mixing. Next, tubes were vortexed to disrupt cell membranes and then centrifuged at 12,000 × g at 4°C for 10 min. […] The pelleted nuclei were washed with the plasma membrane lysis buffer and re-suspended in the nuclear extraction buffer [20 mM HEPES (pH 7.5), 400 mM NaCl, 1 mM EDTA, 1 mM DTT, 1 mM PMSF with 1× protease inhibitor cocktail] and incubated on ice for 30 min. The tubes were centrifuged at 12,000 ×g for 25 min at 4°C and the supernatant (now containing the soluble fraction of the cell nuclei) was collected. Total protein concentrations were determined using the Bio-Rad Protein Assay (Bio-Rad, Hercules, CA). Nuclear extracts containing the total of 40 μg protein were separated on a 10% Tris-SDS PAGE gel (Bio-Rad Mini-PROTEAN® TGX). Gels were transferred on nitrocellulose membranes using Bio-Rad TransBlot system, after which the membranes were blocked in the blocking buffer [5% nonfat dry milk in 1× Tris Buffer Saline + 0.1% Tween 20 (TBST)] for 2 hours at room temperature. Following blocking, the membranes were washed four times with TBST (5 minutes gentle rocking per wash) and incubated overnight with primary antibody Rabbit anti-Gli-1 (Cell signaling, #C68H3); 1:250 dilution in TBST-Milk at 4°C with gentle rocking. Membranes were washed three times with TBST for 5 min each.

[4] = system: nuclear Gli-1 in DAOY cells; experiment: Western blot quantitation of nuclear Gli-1; format: cell-based, human; conditions: NS conditions, 24-hour treatment, 5 μM (Fig 6f, S4 Fig)
Experimental: as §1

[5] = molecular target: Mitogen-activated protein kinase MLT (MLTK_HUMAN); parameters: method as in earlier work; conditions: S3 Table; ref [1] Davis MI et al., Nat Biotechnol. 2011; cited from earlier work
[6] = system: firefly luciferase under control of cAMP response element (CRE); experiment: CRE-luciferase counter assay in HEK293s cells; format: cell-based; conditions: different concentrations
Experimental: (a) The drugs were tested at different concentrations in HEK293s cells stably transfected with firefly luciferase under control of cAMP response element (CRE) (pGL4.29[luc2P/CRE/Hygro], Promega). […] Raw, non-normalized luminescence values are presented, to facilitate the assessment of the extent of inhibition. Shown is a single representative experiment out of the multiple experiments performed on different days. (Mean ± SD)

MB-PDX cells [7] = experiment: cells; conditions: Homo sapiens, 72 h, read-out: Cell viability assay IC50
mSMO = molecular target: T1, mSMO (Mus musculus, UniProt P56726); experiment: BODIPY-Cyclopamine competition binding assay, flow cytometry, HEK293T cells transiently transfected with mSMO; conditions: BODIPY-Cyclopamine 5 nM
T1 construct: host or cells: HEK293T
T1 sequence (P56726 33-793): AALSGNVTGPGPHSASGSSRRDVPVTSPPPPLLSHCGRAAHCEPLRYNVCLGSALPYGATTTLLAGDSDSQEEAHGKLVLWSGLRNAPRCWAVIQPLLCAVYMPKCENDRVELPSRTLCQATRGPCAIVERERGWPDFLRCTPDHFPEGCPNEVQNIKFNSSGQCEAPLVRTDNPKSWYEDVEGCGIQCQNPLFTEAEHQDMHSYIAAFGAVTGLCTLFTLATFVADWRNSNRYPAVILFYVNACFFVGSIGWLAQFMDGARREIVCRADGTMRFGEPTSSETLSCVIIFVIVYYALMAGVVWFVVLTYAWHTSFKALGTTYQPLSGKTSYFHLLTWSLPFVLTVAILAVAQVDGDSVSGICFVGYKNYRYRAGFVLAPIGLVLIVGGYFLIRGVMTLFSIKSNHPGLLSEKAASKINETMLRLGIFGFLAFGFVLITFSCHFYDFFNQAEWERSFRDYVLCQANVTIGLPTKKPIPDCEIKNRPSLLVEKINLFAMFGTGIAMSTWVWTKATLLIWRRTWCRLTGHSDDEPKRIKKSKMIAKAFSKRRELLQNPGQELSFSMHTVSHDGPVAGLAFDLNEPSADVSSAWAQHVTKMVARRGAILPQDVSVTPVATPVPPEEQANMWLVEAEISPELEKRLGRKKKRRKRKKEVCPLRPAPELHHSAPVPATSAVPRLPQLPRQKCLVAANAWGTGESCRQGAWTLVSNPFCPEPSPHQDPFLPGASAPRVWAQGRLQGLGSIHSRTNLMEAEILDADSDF
Experimental: Prior to transfection, cell culture media was replaced with DMEM + 10%FBS for mSMO transfection and with DMEM + 10%BCS for ShhN transfection. The transfected dish was incubated for approximately 24 hours at 37°C. For the production of ShhN conditioned medium, the culture medium from ShhN-transfected HEK293T cells was collected, aliquoted in single use 1.5 mL Eppendorf tubes and either used fresh or stored at -20°C.
HEK293T cells transiently transfected with mSMO were lifted with trypsin (0.25%) and replated at 6×10^4 cells in 80 μL DMEM + 10%FBS per well in a 96 well tissue-culture treated plate (Falcon, 353219). The plate was incubated at 37°C for 24 hours. Serial dilutions of test compounds (10x final concentrations) were prepared in culture media. 10 μL of diluted compounds or control media were added to the plate after which the plate was incubated at 37°C for 10 min. […] Following at least 1.5 hours incubation at 37°C in 5% CO2, cells were lifted by vigorous pipetting, transferred to conical bottom 96-well plates, and centrifuged at 400 × g for 5 min at 4°C. Supernatant was discarded, cells were re-suspended in 300 μL of PBS + 0.5% BSA (freshly prepared), and the plate was analyzed with Guava benchtop flow cytometer. The results were interpreted with FlowJo software (version v10.1). Dose response curves were constructed in Prism 6 (GraphPad Software, La Jolla, CA).

[8] = cited from earlier work
Gli-1 mRNA = experiment: qRT-PCR of Gli-1 mRNA in MB-PDX xenograft tumors; format: in vivo, mouse
Experimental: NSG mice, 4–6 weeks old, were injected subcutaneously at shoulders and flanks with 1 × 10^6 viable MB-PDX cells in 1:1 HBSS and gelatinous protein mixture Matrigel. […] The tumor size was measured three times a week with a caliper, and tumor volumes were calculated according to the formula (length × width × width × 0.5). At day 42 post-grafting, all mice were euthanized by isoflurane inhalation and cervical dislocation. Tumors were harvested and stored for qRT-PCR analysis.
Both post-vivo MB-PDX cells and Math1-Cre; ptch1-flox/flox cells were analyzed for Gli-1 mRNA expression. For that, total RNA was extracted from dissociated single cells using QIAGEN RNease Mini Kit and cDNA was prepared using 1μg RNA with iScript cDNA Synthesis Kit (Bio-Rad). SYBR green-based QPCR was performed using murine primers listed as below (GLI1, Forward 5’- [sequence]-3’, Reverse 5’-[sequence]-3’, GAPDH Forward 5'-[sequence] -3', Reverse 5'-[sequence]-3'). mRNA levels were normalized to GAPDH (dCt = Ct gene of interest–Ct GAPDH) and reported as relative mRNA expression (ddCt = 2-^(dCt sample–dCt control)) in fold change.

[9] = molecular target: Carbonic anhydrase 9 (CAH9_HUMAN); conditions: S2/S3 Table; ref [2] Parkkila S et al., Bioorg Med Chem Lett. 2009; cited from earlier work

In the case of `Cc1cn(-c2cc(NC(=O)c3ccc(C)c(Nc4nccc(-c5cccnc5)n4)c3)cc(C(F)(F)F)c2)cn1` [Nilotinib], the “Tumor volume versus vehicle-treated group” value (MB-PDX xenograft) is listed as “significantly smaller tumors”, the “Kd/Ki Value” [1] is listed as 0.0293 µM and the inhibition at 10 µM (DAOY cells) is listed as over 90%. The inhibition at 10 µM (MB-PDX cells [2]) was over 90%, the “Nuclear Gli-1, mean, % of untreated samples” value [3] was 41% and the “Nuclear Gli-1, mean, % of untreated samples” value [4] was 46%. For the same compound, the “Kd/Ki Value” [5] was 0.011 µM, the “Effect on CRE-driven luciferase activity (independent of SMO)” value [6] was “lack of dose-dependent effect” and the IC50 (MB-PDX cells [7]) was 5 µM. For the same compound, the “Displacement of BODIPY-Cyclopamine from SMO (in words)” value (mSMO) was “displace BODIPY-Cyclopamine”, the IC50 (mSMO; HEK293T cells transfected with mSMO, n = 2, estimated, read-out: SMO binding IC50) was 3.11 µM and the “Trough concentration, Cmin” value ([8]; clinically achievable concentrations) was 1600 to 2600 nM. For the same compound, the “Average Cmin” value ([8]; human plasma) was 2600 nM, the Cmax ([8]; human plasma) was 3300 nM and the “Trough concentration (Cmin) in human plasma” value ([8]; standard dosing of 400 mg twice daily) was 1650 to 2380 nM. For the same compound, the “Gli-1 mRNA expression in tumors versus vehicle” value (Gli-1 mRNA) was “significant reduction in the Gli-1 mRNA expression levels” and the “Kd/Ki Value” [9] was 0.0419 µM.
